Laboratory results taken from patent US10106552B2, “Compounds inhibiting eukaryotic elongation factor 2 kinase activity” (Longevica Pharmaceuticals, Inc., priority 2013, dated 2018).

Biological target: recombinant eEF2K (Homo sapiens (Human), UniProt O00418)
Assay: eEF2K Kinase-Glo luminescent kinase assay (ATP consumption, peptide substrate)
Type: biochemical
Conditions: average of two to four separate experimental measurements, each the average of three replicates
Description: The following compounds were synthesized using the general methods described above. In the table below, IC50 values are in μM and are the average of two to four separate experimental measurements, each consisting in turn of the average of three replicates. IC50 values were calculated using the methods as described in Example 2. MW was determined by mass spectroscopy analysis, and is expressed as M+1.
To determine the IC50 of compounds of the invention, recombinant eEF2K was diluted in an assay buffer in the presence of calmodulin, a calcium-binding messenger protein expressed in eukaryotic cells, and incubated with peptide substrate Ac-RKKYKFNEDTERRRFL in the presence of Adenosine-5′-triphosphate (ATP) and the test compound. The peptide substrate is efficiently and specifically phosphorylated by eEF2K at a single substrate concentration of 100 μM. Using this peptide, eEF2K activity can be quantitatively determined using a Kinase-Glo® luminescent kinase assay kit (Promega) that measures ATP consumption by EF2K during phosphorylation of the substrate. ATP conversion was recorded using Perkin-Elmer Victor Luminometer. Data was plotted using GraphPad software and IC50 was calculated using 3-parameter sigmoidal curve fit.

SMILES	IC50 [µM]
CC1(C)C/C(=C\c2ccc(Cl)o2)c2nc3sc(C(N)=O)c(N)c3c(-c3ccc(Cl)o3)c2C1 [Compound 1, 3-Amino-4-(5-chloro-furan-2-yl)-8-(5-chloro-furan-2-ylmethylene)-6,6-dimethyl-5,6,7,8-tetrahydro-thieno[2,3-b]quinoline-2-carboxylic acid amide]	2.7
CC1(C)CCc2nc3sc(C(N)=O)c(N)c3c(-c3ccc(Cl)o3)c2C1 [Compound 2, 3-Amino-4-(5-chloro-furan-2-yl)-6,6-dimethyl-5,6,7,8-tetrahydro-thieno[2,3-b]quinoline-2-carboxylic acid amide]	1.1
NC(=O)c1sc2nc3c(c(-c4ccc(Cl)o4)c2c1N)CC(c1ccccc1)C/C3=C\c1ccc(Cl)o1 (stereo not shown) [Compound 3, 3-Amino-4-(5-chloro-furan-2-yl)-8-(5-chloro-furan-2-ylmethylene)-6-phenyl-5,6,7,8-tetrahydro-thieno[2,3-b]quinoline-2-carboxylic acid amide]	10000
NC(=O)c1sc2nc3c(c(-c4ccc(Cl)o4)c2c1N)CC(c1ccccc1)CC3 (stereo not shown) [Compound 4, 3-Amino-4-(5-chloro-furan-2-yl)-6-phenyl-5,6,7,8-tetrahydro-thieno[2,3-b]quinoline-2-carboxylic acid amide]	10000
CCCC1C/C(=C\c2ccc(Cl)o2)c2nc3sc(C(N)=O)c(N)c3c(-c3ccc(Cl)o3)c2C1 (stereo not shown) [Compound 5, 3-Amino-4-(5-chloro-furan-2-yl)-8-(5-chloro-furan-2-ylmethylene)-6-propyl-5,6,7,8-tetrahydro-thieno[2,3-b]quinoline-2-carboxylic acid amide]	6
CC1(C)CCc2nc3sc(C(N)=O)c(N)c3c(-c3ccco3)c2C1 [Compound 6, 3-Amino-4-furan-2-yl-6,6-dimethyl-5,6,7,8-tetrahydro-thieno[2,3-b]quinoline-2-carboxylic acid amide]	1.2
CC1(C)CCc2c(nc3sc(C(N)=O)c(N)c3c2-c2ccc(Cl)o2)C1 [Compound 7, 3-Amino-4-(5-chloro-furan-2-yl)-7,7-dimethyl-5,6,7,8-tetrahydro-thieno[2,3-b]quinoline-2-carboxylic acid amide]	1.6
CC1(C)CCCc2c1nc1sc(C(N)=O)c(N)c1c2-c1ccc(Cl)o1 [Compound 8, 3-Amino-4-(5-chloro-furan-2-yl)-8,8-dimethyl-5,6,7,8-tetrahydro-thieno[2,3-b]quinoline-2-carboxylic acid amide]	4.7
CC1(C)CCc2c1nc1sc(C(N)=O)c(N)c1c2-c1ccc(Cl)o1 [Compound 9, 3-Amino-4-(5-chloro-furan-2-yl)-7,7-dimethyl-6,7-dihydro-5H-1-thia-8-aza-s-indacene-2-carboxylic acid amide]	2.4
CC1(C)CCc2c(nc3sc(C(N)=O)c(N)c3c2-c2ccco2)C1 [Compound 10, 3-Amino-4-furan-2-yl-7,7-dimethyl-5,6,7,8-tetrahydro-thieno[2,3-b]quinoline-2-carboxylic acid amide]	1
CC1(C)CCc2c(nc3sc(C(N)=O)c(N)c3c2-c2ccc(Cl)c(Cl)c2)C1 [Compound 11, 3-Amino-4-(3,4-dichloro-phenyl)-7,7-dimethyl-5,6,7,8-tetrahydro-thieno[2,3-b]quinoline-2-carboxylic acid amide]	23
CC1CC(C)(C)Cc2nc3sc(C(N)=O)c(N)c3c(-c3ccc(Cl)o3)c21 (stereo not shown) [Compound 12, 3-Amino-4-(5-chloro-furan-2-yl)-5,7,7-trimethyl-5,6,7,8-tetrahydro-thieno[2,3-b]quinoline-2-carboxylic acid amide]	5
NC(=O)c1sc2nc3c(c(-c4ccc(Cl)o4)c2c1N)CCCC3c1ccccc1 (stereo not shown) [Compound 13, 3-Amino-4-(5-chloro-furan-2-yl)-8-phenyl-5,6,7,8-tetrahydro-thieno[2,3-b]quinoline-2-carboxylic acid amide]	31
CC1(C)C/C(=C\c2cccc(Cl)c2F)c2nc3sc(C(N)=O)c(N)c3c(-c3cccc(Cl)c3F)c2C1 [Compound 14, 3-Amino-8-(3-chloro-2-fluoro-benzylidene)-4-(3-chloro-2-fluoro-phenyl)-6,6-dimethyl-5,6,7,8-tetrahydro-thieno[2,3-b]quinoline-2-carboxylic acid amide]	5020
CC1(C)CCc2c1nc1sc(C(N)=O)c(N)c1c2-c1ccco1 [Compound 15, 3-Amino-4-furan-2-yl-7,7-dimethyl-6,7-dihydro-5H-1-thia-8-aza-s-indacene-2-carboxylic acid amide]	2.5
CC1CC(C)(C)Cc2nc3sc(C(N)=O)c(N)c3c(-c3ccco3)c21 (stereo not shown) [Compound 16, 3-Amino-4-furan-2-yl-5,7,7-trimethyl-5,6,7,8-tetrahydro-thieno[2,3-b]quinoline-2-carboxylic acid amide]	4.6
CC1(C)CCc2c1nc1sc(C(N)=O)c(N)c1c2-c1ccoc1 [Compound 17, 3-Amino-4-furan-3-yl-7,7-dimethyl-6,7-dihydro-5H-1-thia-8-aza-s-indacene-2-carboxylic acid amide]	1.1
CC1(C)CCc2c1nc1sc(C(N)=O)c(N)c1c2-c1ccsc1 [Compound 18, 3-Amino-7,7-dimethyl-4-thiophen-3-yl-6,7-dihydro-5H-1-thia-8-aza-s-indacene-2-carboxylic acid amide]	0.9
CC1(C)CCc2c1nc1sc(C(N)=O)c(N)c1c2C1CC1 [Compound 19, 3-Amino-4-cyclopropyl-7,7-dimethyl-6,7-dihydro-5H-1-thia-8-aza-s-indacene-2-carboxylic acid amide]	1.1
CC1(C)CCc2nc3sc(C(N)=O)c(N)c3c(-c3ccsc3)c2C1 [Compound 20, 3-Amino-6,6-dimethyl-4-thiophen-3-yl-5,6,7,8-tetrahydro-thieno[2,3-b] quinoline-2-carboxylic acid amide]	2.2
CC1(C)CCc2nc3sc(C(N)=O)c(N)c3c(-c3ccoc3)c2C1 [Compound 21, 3-Amino-4-furan-3-yl-6,6-dimethyl-5,6,7,8-tetrahydro-thieno[2,3-b]quinoline-2-carboxylic acid amide]	2
CC1(C)C/C(=C\c2ccoc2)c2nc3sc(C(N)=O)c(N)c3c(-c3ccoc3)c2C1 [Compound 22, 3-Amino-4-furan-3-yl-8-furan-3-ylmethylene-6,6-dimethyl-5,6,7,8-tetrahydro-thieno[2,3-b]quinoline-2-carboxylic acid amide]	6
CC1(C)CCc2c1nc1sc(C(N)=O)c(N)c1c2-c1nccs1 [Compound 23, 3-Amino-7,7-dimethyl-4-thiazol-2-yl-6,7-dihydro-5H-1-thia-8-aza-s-indacene-2-carboxylic acid amide]	2
CC1(C)CCc2c1nc1sc(C(N)=O)c(N)c1c2-c1ccc(Cl)s1 [Compound 24, 3-Amino-4-(5-chloro-thiophen-2-yl)-7,7-dimethyl-6,7-dihydro-5H-1-thia-8-aza-s-indacene-2-carboxylic acid amide]	1.4
CC1(C)CCc2c1nc1sc(C(N)=O)c(N)c1c2-c1cc(Br)cs1 [Compound 25, 3-Amino-4-(4-bromo-thiophen-2-yl)-7,7-dimethyl-6,7-dihydro-5H-1-thia-8-aza-s-indacene-2-carboxylic acid amide]	0.8
